Patent US20250289878A1, “SURFACE-MODIFIED EXOSOMES AND METHODS OF USE” (The Board of Regents of the University of Oklahoma, priority 2021, published 2025)

Columns and labels:
B16F10 tumor = assay: B16F10 murine tumor model, therapeutic efficacy; format: in vivo, mice; settings: IV every three days, DOX 5 mg/kg (ASL 2.5 mg/kg), vs untreated control
Protocol: B16F10 cells (1×10^6) were directly injected into the flank of 6 weeks old mice. The mice were randomly grouped by six in each and observed until the cancer volume reached ˜50 mm^3. […] The tumor volume was calculated based on the formula: (width^2×length)/2. On day 18, the mice were sacrificed, and organs were harvested for histological analysis. H&E and TUNEL staining were performed using the paraffin-embedded tissues.

[1] = system: cleaved caspase-3 and cleaved PARP of B16F10 cells; assay: Apoptotic activity: cleaved caspase-3 and cleaved PARP by ELISA and western blot; format: cell-based, murine; settings: DOX 5 μM, 24 hours
Protocol: B16F10 cells were seeded in a 100 mm cell culture dish with cell density at 4.4×10^6 and incubated for 24 hours. After the treatment of various agents with a fixed concentration of DOX (5 μM) for 24 hours, proteins were collected using a cell lysis buffer on ice. Proteins were separated by electrophoresis and transferred to PVDF membranes. Cleaved caspase-3, cleaved PARP, and β-actin (Cell Signaling Technology, Danvers, MA, USA) were used as primary antibodies, and IRDye secondary antibodies (LI-COR Biosciences, Lincoln, NE, USA) were used as secondary antibodies. The protein bands were imaged using the Odyssey CLx (LI-COR Biosciences, Lincoln, NE, USA). The apoptotic activities of dAEx were evaluated by measuring the level of cleaved caspase-3, and cleaved PARP in the protein samples with a cleaved PARP (Cell Signaling Technology, Danvers, MA, USA) and a cleaved caspase-3 (R&D systems, Minneapolis, MN, USA) ELISA kit according to manufacturer's protocol.

B16F10 cells = assay: CCK-8 cell viability / cytotoxicity test; format: cell-based, murine; settings: Mus musculus, B16-F10, DOX concentration, 24 hours, read-out: half-maximal inhibitory concentration (IC50)
Protocol: Cells (B16F10 and RAW 264.7 cell line) were grown in DMEM containing 10% FBS at 37° C. with 5% CO2. B16F10 and RAW 264.7 cells were seeded on the 96 well tissue culture plates (1×10^4 per well) and cultured for 24 hours. To confirm the biosafety of ASL and AEx, the cells were treated with various concentrations of ASL and AEx and incubated for 24 hours. For the cytotoxicity test, B16F10 cells were given the various concentrations of dAEx, dEx, DOX. In addition to the further competition test, B16F10 cells were incubated with the cyclic RGD (2 μM) for 2 hours and treated with the various concentrations of dAEx. After 24 hours of the treatment, to investigate the cell survival, cells were washed using the fresh PBS twice, and 10% CCK-8 containing DMEM was added to each well and incubated for 1 hour. The absorbance was measured using a microplate reader at 450 nm.

COc1cccc2c1C(=O)c1c(O)c3c(c(O)c1C2=O)C[C@@](O)(C(=O)CO)C[C@@H]3O[C@H]1C[C@H](N)[C@H](O)[C@H](C)O1 [DOX, Doxorubicin]
tumor growth (tumor volume) (B16F10 tumor): did not significantly inhibit tumor growth
expression of cleaved caspase-3 and cleaved PARP [1]: slight activation
IC50 (B16F10 cells): 9.85 ± 1.06 µM
